This is an account of results in ChEMBL document CHEMBL4837240 (J Med Chem, 2021).

The nature of data set [1]: Toxicity in BALB/c mouse xenografted with MDA-MB-231 cells assessed as LDH level in blood at 300 mg/kg, po. In kind it is organism-based. The following applies: in vivo.
Data set [2] can be described thus: Toxicity in BALB/c mouse xenografted with MDA-MB-231 cells assessed as AST level in blood at 300 mg/kg, po. It is filed as organism-based. The following applies: in vivo.
The nature of data set [3]: Toxicity in BALB/c mouse xenografted with MDA-MB-231 cells assessed as ALT level in blood at 300 mg/kg, po. It is filed as organism-based. Conditions: in vivo.
For data set [4], the system named is MDA-MB-231. Briefly: Antimetastatic activity against human MDA-MB-231 cells injected into vein of BALB/c mouse lung metastatic model assessed as less lung metastatic nodules at 25 mg/kg, po once a day measured on day 21. The following applies: time 21.0 day. In kind it is functional, organism-based.
Data set [5] relates to MDA-MB-231. Briefly: Anticancer activity against human MDA-MB-231 cells assessed as cell viability incubated for 48 hrs by MTT assay. Conditions: MDA-MB-231, 48 h. On the technique in general: Tetrazolium dyes change colour on reduction, which living cells bring about.
Data set [6] relates to MDA-MB-436. Briefly: Anticancer activity against human MDA-MB-436 cells assessed as cell viability incubated for 48 hrs by MTT assay. Conditions: MDA-MB-436, 48 h.
Data set [7] is described as follows: Antiproliferative activity against VEGF-C-induced human dermal lymphatic endothelial cells assessed as cell viability incubated for 48 hrs by CCK-8 assay. In kind it is functional, tissue-based. Conditions: HDLEC.
Data set [8] in a line: Antiproliferative activity against VEGF-D-induced human dermal lymphatic endothelial cells assessed as cell viability incubated for 48 hrs by CCK-8 assay. In kind it is functional, tissue-based. The following applies: HDLEC.
The subject of data set [9] is HDLEC. Nature of the data set: Anti-lymphangiogenic activity against human dermal lymphatic endothelial cells assessed as inhibition of VEGF-C-mediated tube formation at 100 nM incubated for 12 hrs by inverted microscopy. It is filed as functional, tissue-based.
Data set [10] relates to HDLEC. Nature of the data set: Inhibition of cell migration in VEGF-C-induced human dermal lymphatic endothelial cells assessed as cell migration at 100 nM incubated for 24 hrs by inverted microscopy based by scratch wound healing assay. It is filed as functional, tissue-based.
The subject of data set [11] is HDLEC. Nature of the data set: Antimigratory activity against VEGF-C-induced human dermal lymphatic endothelial cells assessed as cell migration at 100 nM incubated for 12 hrs by inverted microscopy based by transwell assay. In kind it is functional, tissue-based.
The nature of data set [12]: Toxicity in BALB/c mouse xenografted with MDA-MB-231 cells assessed as effect on body weight at 50 mg/kg, po. Conditions: in vivo. It is filed as organism-based.
A short description of data set [13]: Toxicity in BALB/c mouse xenografted with MDA-MB-231 cells assessed as creatinine level in blood at 300 mg/kg, po. In kind it is organism-based. Conditions: in vivo.
Data set [14] is described as follows: Toxicity in BALB/c mouse xenografted with MDA-MB-231 cells assessed as uric acid level in blood at 300 mg/kg, po. The following applies: in vivo. In kind it is organism-based.
The nature of data set [15]: Toxicity in BALB/c mouse xenografted with MDA-MB-231 cells assessed as change in heart at 300 mg/kg, po by hematoxylin and eosin staining based analysis. It is filed as organism-based. Conditions: in vivo.
A short description of data set [16]: Toxicity in BALB/c mouse xenografted with MDA-MB-231 cells assessed as change in liver at 300 mg/kg, po by hematoxylin and eosin staining based analysis. It is filed as organism-based. Conditions: in vivo.
The nature of data set [17]: Toxicity in BALB/c mouse xenografted with MDA-MB-231 cells assessed as change in spleen at 300 mg/kg, po by hematoxylin and eosin staining based analysis. It is filed as organism-based. Conditions: in vivo.
Data set [18] in a line: Toxicity in BALB/c mouse xenografted with MDA-MB-231 cells assessed as change in lung at 300 mg/kg, po by hematoxylin and eosin staining based analysis. In kind it is organism-based. Conditions: in vivo.
Data set [19] can be described thus: Toxicity in BALB/c mouse xenografted with MDA-MB-231 cells assessed as change in kidney at 300 mg/kg, po by hematoxylin and eosin staining based analysis. In kind it is organism-based. Conditions: in vivo.
The nature of data set [20]: Toxicity in BALB/c mouse xenografted with MDA-MB-231 cells assessed as change in liver at 25 mg/kg, po by hematoxylin and eosin staining based analysis. In kind it is organism-based. Conditions: in vivo.
Data set [21] concerns the target Platelet-derived growth factor receptor beta (Homo sapiens, UniProt P09619). Nature of the data set: Inhibition of PDGFRbeta (unknown origin).
Data set [22] addresses Platelet-derived growth factor receptor alpha (Homo sapiens, UniProt P16234). Briefly: Inhibition of PDGFRalpha (unknown origin).
Data set [23] deals with Mast/stem cell growth factor receptor Kit (Homo sapiens, UniProt P10721). Nature of the data set: Inhibition of c-Kit (unknown origin).
Chain of Mast/stem cell growth factor receptor Kit (P10721 whole entry): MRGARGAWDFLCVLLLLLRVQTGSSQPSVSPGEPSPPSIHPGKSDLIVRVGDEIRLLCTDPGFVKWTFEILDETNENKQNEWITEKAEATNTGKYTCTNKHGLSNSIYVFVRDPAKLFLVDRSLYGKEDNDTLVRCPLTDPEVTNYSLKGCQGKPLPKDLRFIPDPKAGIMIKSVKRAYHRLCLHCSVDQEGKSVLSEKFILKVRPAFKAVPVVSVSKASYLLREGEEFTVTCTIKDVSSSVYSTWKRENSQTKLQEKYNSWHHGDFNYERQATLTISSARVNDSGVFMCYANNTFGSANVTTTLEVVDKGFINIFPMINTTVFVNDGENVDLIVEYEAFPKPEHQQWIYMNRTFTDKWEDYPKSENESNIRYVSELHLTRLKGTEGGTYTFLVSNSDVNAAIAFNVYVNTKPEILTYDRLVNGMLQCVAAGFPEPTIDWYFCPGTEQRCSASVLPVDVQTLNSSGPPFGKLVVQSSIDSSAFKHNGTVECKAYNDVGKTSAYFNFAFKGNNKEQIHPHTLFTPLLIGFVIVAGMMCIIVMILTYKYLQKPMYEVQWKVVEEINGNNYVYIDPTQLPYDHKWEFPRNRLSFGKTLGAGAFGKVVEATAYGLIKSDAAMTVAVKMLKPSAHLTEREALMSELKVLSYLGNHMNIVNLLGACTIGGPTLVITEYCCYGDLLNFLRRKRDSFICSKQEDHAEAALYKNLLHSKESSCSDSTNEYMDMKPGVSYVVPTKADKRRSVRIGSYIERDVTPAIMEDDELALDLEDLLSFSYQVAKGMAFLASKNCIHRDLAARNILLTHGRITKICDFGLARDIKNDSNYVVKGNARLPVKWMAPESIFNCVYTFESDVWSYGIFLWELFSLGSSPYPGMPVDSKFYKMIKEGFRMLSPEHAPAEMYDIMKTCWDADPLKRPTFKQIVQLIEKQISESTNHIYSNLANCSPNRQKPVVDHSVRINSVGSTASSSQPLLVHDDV

Activity calls are given as the source filed them. The calls are words filed in the database; no cut-off is given here.

Chain of Platelet-derived growth factor receptor beta (P09619 whole entry): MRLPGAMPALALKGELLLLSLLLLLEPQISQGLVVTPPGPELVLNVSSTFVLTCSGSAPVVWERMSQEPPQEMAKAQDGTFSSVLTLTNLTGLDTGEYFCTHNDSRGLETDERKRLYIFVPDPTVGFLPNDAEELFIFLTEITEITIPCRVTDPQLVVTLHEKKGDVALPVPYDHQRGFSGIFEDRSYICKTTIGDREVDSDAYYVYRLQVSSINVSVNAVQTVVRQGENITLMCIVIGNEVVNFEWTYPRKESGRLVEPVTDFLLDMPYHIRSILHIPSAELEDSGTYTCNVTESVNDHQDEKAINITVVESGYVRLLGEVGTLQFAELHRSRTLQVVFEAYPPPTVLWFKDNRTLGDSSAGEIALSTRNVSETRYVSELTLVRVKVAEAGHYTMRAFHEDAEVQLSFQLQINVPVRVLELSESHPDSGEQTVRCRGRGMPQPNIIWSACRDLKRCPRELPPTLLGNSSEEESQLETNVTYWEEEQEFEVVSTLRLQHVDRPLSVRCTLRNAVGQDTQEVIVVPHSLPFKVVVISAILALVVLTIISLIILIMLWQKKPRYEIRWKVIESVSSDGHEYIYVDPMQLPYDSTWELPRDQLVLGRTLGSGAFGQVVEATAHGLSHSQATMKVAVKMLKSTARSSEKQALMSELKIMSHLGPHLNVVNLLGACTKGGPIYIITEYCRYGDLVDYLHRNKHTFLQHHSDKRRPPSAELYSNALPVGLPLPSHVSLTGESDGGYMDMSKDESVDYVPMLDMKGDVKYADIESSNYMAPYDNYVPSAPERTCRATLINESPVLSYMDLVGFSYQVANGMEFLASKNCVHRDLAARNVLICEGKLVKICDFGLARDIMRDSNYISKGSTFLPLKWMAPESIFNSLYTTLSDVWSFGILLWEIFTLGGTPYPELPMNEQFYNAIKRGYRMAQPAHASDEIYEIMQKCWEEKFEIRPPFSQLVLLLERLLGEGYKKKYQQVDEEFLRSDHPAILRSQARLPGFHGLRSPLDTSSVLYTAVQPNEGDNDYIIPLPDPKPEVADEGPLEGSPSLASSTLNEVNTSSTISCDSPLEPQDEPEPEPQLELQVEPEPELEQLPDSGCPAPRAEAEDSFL
Chain of Platelet-derived growth factor receptor alpha (P16234 whole entry): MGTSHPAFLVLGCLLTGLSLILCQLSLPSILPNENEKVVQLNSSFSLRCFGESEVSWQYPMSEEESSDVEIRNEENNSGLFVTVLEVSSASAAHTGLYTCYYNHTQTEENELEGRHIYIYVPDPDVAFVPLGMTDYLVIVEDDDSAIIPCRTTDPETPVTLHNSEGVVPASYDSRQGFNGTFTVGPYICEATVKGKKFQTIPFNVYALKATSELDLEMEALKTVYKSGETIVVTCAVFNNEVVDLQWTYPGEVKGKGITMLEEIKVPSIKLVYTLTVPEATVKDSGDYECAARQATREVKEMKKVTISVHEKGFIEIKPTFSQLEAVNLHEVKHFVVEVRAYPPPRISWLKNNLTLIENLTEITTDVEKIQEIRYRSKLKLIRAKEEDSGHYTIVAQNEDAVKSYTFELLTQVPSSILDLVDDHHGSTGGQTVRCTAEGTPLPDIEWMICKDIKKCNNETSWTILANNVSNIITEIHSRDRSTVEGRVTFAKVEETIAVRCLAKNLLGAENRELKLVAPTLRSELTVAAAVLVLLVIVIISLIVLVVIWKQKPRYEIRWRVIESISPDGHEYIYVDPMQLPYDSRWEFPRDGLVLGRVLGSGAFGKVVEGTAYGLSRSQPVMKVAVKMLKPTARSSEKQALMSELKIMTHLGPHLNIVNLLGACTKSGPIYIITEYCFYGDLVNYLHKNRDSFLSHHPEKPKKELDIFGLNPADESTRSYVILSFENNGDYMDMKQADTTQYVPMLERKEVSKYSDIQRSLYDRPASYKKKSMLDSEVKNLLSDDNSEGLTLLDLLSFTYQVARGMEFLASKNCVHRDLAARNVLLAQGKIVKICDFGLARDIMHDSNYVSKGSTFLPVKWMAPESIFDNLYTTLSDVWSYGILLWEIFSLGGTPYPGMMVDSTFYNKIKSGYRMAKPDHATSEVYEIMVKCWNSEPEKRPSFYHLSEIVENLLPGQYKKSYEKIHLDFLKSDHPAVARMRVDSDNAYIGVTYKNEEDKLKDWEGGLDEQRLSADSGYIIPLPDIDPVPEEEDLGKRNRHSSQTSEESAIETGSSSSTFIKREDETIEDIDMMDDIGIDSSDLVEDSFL

By IC50 is commonly meant the concentration that inhibits the measured activity by half. On to `CCn1c(N)c(C(=O)NC)c(=O)c2ccc(C#C[C@@](C)(O)COC)nc21`, for which the Activity result in data set [1], in [2], in data set [3], in data set [12], in [13] and in data set [14] was “Toxic” in each case. Also, the Activity entry in [15], in [16], in [17], in data set [18], in [19] and in data set [20] was “Toxic” each time. The outcome in data set [4], in data set [9], in [10] and in data set [11] was Active. In addition, the IC50 in data set [5] was greater than 50 µM; in [6], greater than 50 µM; in data set [7], 0.307 µM; in data set [8], 0.72 µM.

As to `COc1cc2nccc(Oc3ccc(NC(=O)NC4CC4)c(Cl)c3)c2cc1C(N)=O` [LENVATINIB], the IC50 in data set [21] was determined as 0.039 µM; in data set [22] it was 0.051 µM.

Consider `CNC(=O)c1cc(COc2nnc(Nc3ccc(Cl)cc3)c3ccoc23)ccn1` [TELATINIB], for which the results for the IC50 in data set [21] and in data set [23] were 0.015 µM and 0.001 µM, respectively.

Consider `C=CS(=O)(=O)N1CCN(c2ncnc3sc(-c4ccc(N5CCN(C)CC5)cc4)cc23)[C@@H](C)C1`, for which the figures for the half-inhibitory concentration (IC50) in [5] and in [6] were 6.18 µM and 6.92 µM, respectively.

Regarding `CN1CCN(c2ccc(-c3cc4c(N5CCN(C(=O)Nc6cccc(F)c6)CC5)ncnc4s3)cc2)CC1`, the IC50 in data set [5] was found to be 13.2 µM; in [6] it was 18.3 µM.

As for `C=CS(=O)(=O)N1CCN(c2nc(OC[C@H]3CCCN3C)nc3sc(-c4ccc(OC)nc4)cc23)CC1`, the values for the concentration for half-maximal inhibition (IC50) in data set [5] and in data set [6] were 3.56 µM and 4.98 µM, respectively.

Consider `CCCNC(=O)N1CCN(c2ncnc3sc(-c4ccc(N5CCN(C)CC5)cc4)cc23)CC1`, for which the figures for the half-maximal inhibitory concentration (IC50) in data set [5] and in data set [6] were 8.33 µM and 12.4 µM, respectively.

In the case of `CCS(=O)(=O)N1CCN(c2ncnc3sc(-c4ccc(N5CCN(C)CC5)cc4)cc23)CC1`, the IC50 in [5] came out at 7.33 µM; in data set [6], 10.6 µM.

In the case of `C=CS(=O)(=O)N1CCN(c2nc(OCC3CCCCN3C)nc3sc(-c4ccc(C#N)cc4)cc23)CC1` (stereo not drawn), the IC50 came to 3.18 µM in data set [5] and 4.08 µM in data set [6].

Turning to `COc1ccccc1NC(=O)N1CCN(c2ncnc3sc(-c4ccc(N5CCN(C)CC5)cc4)cc23)CC1`, the IC50 in [5] is 23.2 µM; in data set [6], 26.3 µM.
